The values that follow come from patent US11492361B2, “Compounds useful in HIV therapy” (GlaxoSmithKline Intellectual Property Development Limited, priority 2018, dated 2022).

Experiment [1] deals with Jurkat HIV-luciferase clones. The conditions noted are these: background statement; cited from earlier work.
Experiment [2] relates to p100/p52. As to conditions: background statement, primary cells; cited from earlier work.
Experiment [3] concerns cell-associated HIV RNA (HIV gag RNA) in CD4+ T cells. As to conditions: background statement, primary cells / resting CD4+ T cells; cited from earlier work.
The subject of experiment [4] is Jurkat HIV-luciferase clones. The experiment is described as follows: Jurkat latency reversal assay. The conditions noted are these: Homo sapiens, Jurkat. It is filed as cell-based. The method in brief:
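Three pooled Jurkat HIV-luciferase clones (C16, I15, N6; 5,000 cells/well, maintained with 500 nM EFV) exposed to 3-fold, 14-point titrations (10 μM to 2.1 pM, 0.5% DMSO) in duplicate for 48 h at 37 °C. Luciferase luminescence read; EC50 and maximal % activation versus vehicle from four-parameter logistic fit.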

Experiment [5] concerns p100/p52. The experiment is described as follows: p100/p52 Western blot (WB) assay. The conditions noted are these: Homo sapiens, PBMC, 24 h, read-out: p100/p52 Western Blot (WB) EC50 (nM). It is filed as cell-based, human. How it is done: Cell cultures were set up to evaluate several SMACm compounds. Frozen PBMC cells from healthy donors were thawed and plated in 2 ml deepwell plates at 2×10^6 cells/ml. Serial dilutions of each compound was carried out as a 7 fold 1:6 dilution with the starting final dose of 1000 nM. Cells were then combined with compound and place at 37° for 24 hrs. The following day cells were pelleted and placed at −80 until lysis.
In preparation for cell lysis, the frozen cell pellets and an aliquot of NP40 Cell Lysis Buffer (Invitrogen, Part #FNN0021), as well as an aliquot of 10× Protease Inhibitor Cocktail (Sigma, Part #P-2714) are thawed on ice. Once thawed, the complete lysis buffer is prepared by adding 10% final volume PI cocktail to the NP40 buffer and then adding in sufficient volume of 0.1 M PMSF (Sigma, Part #93482) and 1 M DTT (Sigma, Part #43816) to create a final concentration of 1 mM each in the complete lysis buffer. Cell lysis is then carried out by resuspending each cell pellet in 30 μL per 10^6 cells then incubating on ice for 30 minutes with vigorous vortexing every 10 minutes. The lysed cells are then centrifuged at 13K RPM for 10 minutes at 4° C. in a refrigerated microcentrifuge. The supernatants (lysates) are then transferred into new microcentrifuge tubes and either stored at −80° or utilized immediately for protein concentration and Western blot analysis.
Protein concentration for each lysate is determined using a detergent compatible Bradford assay (Pierce, Part #23246) following the manufacturer's microplate instructions.
Capillary Western analysis were performed using the ProteinSimple Jess System. A total of 1 ug of cell lysate was prepared according to the provided protocol supplied by ProteinSimple. The primary antibody for p100/p52 (Cell, Signaling #3017) is diluted 1:10 for use in the Jess system. The 12-230 kDa Jess Seperation Module capillary cartridges Separation Module (SM-W004) is used in conjunction with the Anti-Rabbit Secondary NIR conjugate (043-819). The Separation module includes prefilled plates that the samples, primary and secondary antibodies, as well as protein normalization reagent and diluents are loaded onto to perform separation and detection. Once the assay has run, the data is then analyzed utilizing the Compass software provided by ProteinSimple.
Alternatively to capillary electrophoresis, traditional immunoblot assays were carried out, 10 μg of cell lysate was loaded per well into 4-20% Tris-Glycine SDS-PAGE gels. Protein from the SDS-PAGE gels were transferred to Turbo Midi PVDF Transfer Packs (BioRad) using the “Mixed MW” protocol for one Midi Format Gel (constant 2.5 A up to 25V, for 7 minutes) of the Trans-Blot Turbo Transfer System (Bio-Rad) with premade Trans-Blot per the manufacturer's instructions. After transfer, PVDF membranes were blocked in 5% bovine serum albumin (BSA) in 1×TBS (BioRad) with 0.1% Tween-20 for 1 hour at room temperature with gentle rocking. Primary antibodies were added and incubated overnight at 4° C. (anti-p100/p52, Cell Signaling Technology #3017, 1:1000; anti-Actin-HRP conjugate, Abcam #49900, 1:30,000). Following primary staining, the membrane washed three times with 1× Tris Buffered Saline (TBS)+0.1% TWEEN® 20 for 10 minutes each wash. After washing, the membrane was incubated in 5% BSA in 1×TBS+0.1% TWEEN® 20 with the appropriate secondary antibody for 2 hours at room temperature. Following secondary stain the membrane was washed twice for 10 minutes with 1×TBS+0.1% TWEEN® 20 followed by a 10-minute wash with 1×TBS. The membrane was then patted dry with filter paper and an image was captured of the undeveloped membrane on the ChemiDoc MP Imaging System using Image Lab software (BioRad). Sufficient ECL reagent (GE Healthcare) was used to cover the membrane and a series of images were taken starting with 0.001 second and doubling to tripling the exposure time until the luminescence from the developed membrane saturated the image. […]
Background: A western blot detects proteins with antibodies after separation by electrophoresis.

The subject of experiment [6] is NFKB2. As to the kind of experiment: NFkB2 gene induction. It is filed as cell-based, human. As to conditions: Homo sapiens, CD4+ T, 24 h, read-out: NFkB2 gene induction EC50 (nM). How it is done: 5×10^5 normal donor CD4 T cells were treated for 24h with serial dilutions of compounds starting at 1.0 μM at 6 fold, 7 places. Total RNA was isolated using the RNEasy Mini kit (Qiagen) per the manufacturer's instructions. The following TaqMan primer probe sets were sourced from Applied Biosystems: Hs00174517_m1 (NFKB2) and Hs02800695 (HPRT1). TaqMan-based real-time PCR (Fast Virus 1-Step Master Mix, Applied Biosystems) was used to amplify host genes of interest. Gene expression was normalized to HPRT1 and comparative threshold cycle (CT) method (ΔΔCT) was used for relative fold change of gene expression as compared to untreated cells. The data was analyzed by QuantStudio3 Real-Time PCR System.

Where [7] appears, read: Table 4 summary, read-out: Jurkat EC50.

The structures appear in SMILES notation. pEC50: −log10 of the molar value. Where a name gives a salt, the structure may show the parent alone. Read-outs that look alike come from different tables or passages of the source.

`CC[C@H](NC(=O)[C@H](C)NC)C(=O)N1C[C@@H](O)C[C@H]1Cc1c(-c2[nH]c3cc(F)ccc3c2C[C@@H]2C[C@H](O)CN2C(=O)[C@H](CC)NC(=O)[C@H](C)NC)[nH]c2cc(F)ccc12` [Birinapant TL32711]: the “potency in cell line assays / Jurkat (HIV latency reversal)” value in experiment [1] is on record as “not potent”. Further, the p100-p52 conversion entry in experiment [2] is “not potent”. The “HIV caRNA induction” value in experiment [3] is recorded as “not potent”.

For `CN[C@@H](C)C(=O)N[C@H]1CCS[C@H]2CC(C)(C)[C@@H](C(=O)N[C@H](COCC#CC#CCOC[C@@H](NC(=O)[C@H]3N4C(=O)[C@@H](NC(=O)[C@H](C)NC)CCS[C@H]4CC3(C)C)c3ccccc3)c3ccccc3)N2C1=O` [compound 33, (4S,4′S,7S,7′S,9aS,9a′S)-N,N′-((1S,1′S)-(hexa-2,4-diyne-1,6-diylbis(oxy))bis(1-phenylethane-2,1-diyl))bis(8,8-dimethyl-4-((S)-2-(methylamino)propanamido)-5-oxooctahydropyrrolo[2,1-b][1,3]thiazepine-7-carboxamide) dihydrochloride], the pEC50 in experiment [4] (48 h) and in experiment [4] (setting [7]) was 8.26 throughout. Further, the EC50 in experiment [5] turned out to be 158 nM; in experiment [6], 46 nM.

Turning to `CN[C@@H](C)C(=O)N[C@H]1CCS[C@H]2CC(C)(C)[C@@H](C(=O)N[C@H](COCCCCCCOC[C@@H](NC(=O)[C@H]3N4C(=O)[C@@H](NC(=O)[C@H](C)NC)CCS[C@H]4CC3(C)C)c3ccccc3)c3ccccc3)N2C1=O` [compound 40, (4S,4′S,7S,7′S,9aS,9a′S)-N,N′-((1S,1′S)-(hexane-1,6-diylbis(oxy))bis(1-phenylethane-2,1-diyl))bis(8,8-dimethyl-4-((S)-2-(methylamino)propanamido)-5-oxooctahydropyrrolo[2,1-b][1,3]thiazepine-7-carboxamide) dihydrochloride], the pEC50 in experiment [4] (48 h) and in experiment [4] (setting [7]) was 8.21 in each case. For the same molecule, the EC50 in experiment [5] came to 1 nM; in experiment [6] it was 11 nM.

Take `CN[C@@H](C)C(=O)N[C@H]1CCS[C@H]2CC(C)(C)[C@@H](C(=O)N[C@H](COCc3ccc(COC[C@@H](NC(=O)[C@H]4N5C(=O)[C@@H](NC(=O)[C@H](C)NC)CCS[C@H]5CC4(C)C)c4ccccc4)cc3)c3ccccc3)N2C1=O` [compound 42, (4S,4′S,7S,7′S,9aS,9a′S)-N,N′-((1S,1′S)-((1,4-phenylenebis(methylene))bis(oxy))bis(1-phenylethane-2,1-diyl))bis(8,8-dimethyl-4-((S)-2-(methylamino)propanamido)-5-oxooctahydropyrrolo[2,1-b][1,3]thiazepine-7-carboxamide) dihydrochloride]: the negative logarithm of the EC50 (pEC50) in experiment [4] (48 h) and in experiment [4] (setting [7]) was 8.17 each time. In addition, the EC50 in experiment [5] was determined as 3.1 nM; in experiment [6] it was 3.6 nM.

One may read the pEC50 as −log10 of the EC50, conventionally taken in molar units.
